In patent US10561681B2, “Antimetastatic 2H-selenopheno[3,2-h]chromenes, synthesis thereof, and methods of using same agents” (Latvian Institute of Organic Synthesis, priority 2016, dated 2020):
Where “and” joins values, the source holds several entries; their conditions need not be identical. Equal values may be shown once. Marks after values point to notes of the source that are not given here.

Legend:
[1] = test system: 3T3 (mouse embryo fibroblasts); test: Basal cytotoxicity test, Neutral Red Uptake (NRU) assay; assay type: cell-based
Description: (§1) In parallel, the borderline concentration relevant to the highest tolerated dose has been determined for each compound using the NIH 3T3 (mouse embryo fibroblasts) cell line and the basal cytotoxicity obtained has then been used to predict the starting doses for in vivo acute oral LD50 values in rodents.
(§2) the Neutral Red Uptake (NRU) assay was performed according to the standard protocol of Stokes modified by the NICEATM-ECVAM validation study. The NRU cytotoxicity assay procedure is based on the ability of viable cells to incorporate and bind Neutral Red, a supravitally dye. Balb/c 3T3 (Mouse Swiss Albino embryo fibroblast) cells (9000 cells/well) were placed into 96-well plates for 24 h in Dulbecco's modified Eagle's (DMEM) medium containing 5% fetal bovine serum. The cells were then exposed to the test compounds over a range of […] concentrations (1000, 316, 100, 31, 10, 3, 1 μg/ml) for 24 h. Untreated cells were used as a control. After 24 h, the medium was removed from all plates. Then, 250 μL of Neutral Red solution were added (0.05 mg/mL NR in DMEM 24 h pre-incubated at 37° C. and then filtered before use through 0.22-μm syringe filter). Plates were incubated for 3 h and then cells were washed three times with PBS. The dye within viable cells was released by extraction with a mixture of acetic acid, ethanol and water (1:50:49). Absorbance of Neutral Red was measured using a spectrophotometer multiplate reader (TECAN, Infinite M1000) at 540 nm. The percentage of living cells was calculated using the formula: OD (treated cells)*100/OD (control cells). The IC50 values were calculated using the programme Graph Pad Prism® 3.0.
(§3) Data from the in vitro tests were used for estimating the starting dose for acute oral systemic toxicity tests in rodents. […] The value is recalculated to mg/kg and compounds are evaluated in accordance with four toxicity categories: category 1: LD50≤5 mg/kg (highly toxic); category 2: 5<LD50≤50 mg/kg (moderately toxic); category 3: 50<LD50≤300 mg/kg (slightly toxic); category 4: 300<LD50≤2 000 mg/kg (practically non-toxic).

[2] = as above; assay type: cell-based
Description: as §1, §2, §3

malignant tumor cells = test: In vitro cytotoxicity on monolayer tumor cell lines (panel, summary in words); assay type: cell-based; conditions: summary of Table 1
Description: Anticancer activity of selenopheno[h]chromenes was tested in vitro using cytotoxicity assay. Thus, monolayer tumor cell lines MDA-MB-435s (human melanoma), MCF-7 (human breast adenocarcinoma, estrogen-positive), MES-SA (human uterus sarcoma), HT-1080 (human fibrosarcoma), A549 (human lung carcinoma), SH-SY5Y (human neuroblastoma), CCL-8 (mouse sarcoma), MG-22A (mouse hepatoma), and HepG2 (human hepatocellular carcinoma) were cultured in standard medium DMEM (Dulbecco's modified Eagle's medium) (“Sigma”) supplemented with 10% fetal bovine serum (“Sigma”). About 2-9·10^4 cells/mL (depending on line nature) were placed in 96-well plates immediately after compounds were added to the wells. Untreated cells were used as a control. The plates were incubated for 72 h, 37° C., 5% CO2. The number of surviving cells was determined using 3-(4,5-dimethylthiazol-2-yl)-2,5-diphenyltetrazolinium bromide (MTT). MTT-test: after incubating culture medium was removed and 200 μL fresh medium with 10 mM HEPES was added in each well of the plate, than 20 μL MTT (2 mg/mL in HBSS) was added. After incubation (3 hr, 37° C., 5% CO2), the medium with MTT was removed and 200 μL DMSO were added at once to each sample. The samples were tested at 540 nm on Anthos HT II photometer.

[3] = test system: HepG2 (human hepatocellular carcinoma); test: In vitro cytotoxicity, MTT test; assay type: cell-based; conditions: HepG2, MTT, 72 h, read-out: Cytotoxicity IC50, HepG2
Description: (§4) Anticancer activity of selenopheno[h]chromenes was tested in vitro using cytotoxicity assay. […] About 2-9·10^4 cells/mL (depending on line nature) were placed in 96-well plates immediately after compounds were added to the wells. Untreated cells were used as a control. The plates were incubated for 72 h, 37° C., 5% CO2. The number of surviving cells was determined using 3-(4,5-dimethylthiazol-2-yl)-2,5-diphenyltetrazolinium bromide (MTT). MTT-test: after incubating culture medium was removed and 200 μL fresh medium with 10 mM HEPES was added in each well of the plate, than 20 μL MTT (2 mg/mL in HBSS) was added. After incubation (3 hr, 37° C., 5% CO2), the medium with MTT was removed and 200 μL DMSO were added at once to each sample. The samples were tested at 540 nm on Anthos HT II photometer.

[4] = test system: SH-SY5Y (human neuroblastoma); test: In vitro cytotoxicity, MTT test; assay type: cell-based; conditions: Homo sapiens, SH-SY5Y, 72 h, MTT, read-out: Cytotoxicity IC50, SHSY5Y
Description: as §4

[5] = test system: HT-1080 (human fibrosarcoma); test: In vitro cytotoxicity, MTT test; assay type: cell-based; conditions: HT-1080, MTT, 72 h, read-out: Cytotoxicity IC50, HT-1080
Description: as §4

[6] = test system: MCF-7 (human breast adenocarcinoma, estrogen-positive); test: In vitro cytotoxicity, MTT test; assay type: cell-based; conditions: MCF7, MTT, 72 h, read-out: Cytotoxicity IC50, MCF-7
Description: as §4

[7] = test system: A549 (human lung carcinoma); test: In vitro cytotoxicity, MTT test; assay type: cell-based; conditions: Homo sapiens, A549, 72 h, MTT, 72 h; read-out: Cytotoxicity IC50, A549
Description: as §4

MG-22A (mouse hepatoma) = test: In vitro cytotoxicity, MTT test; assay type: cell-based; conditions: MTT, 72 h, read-out: Cytotoxicity IC50, MG-22A
Description: as §4

[8] = test system: MES-SA (human uterus sarcoma); test: In vitro cytotoxicity, MTT test; assay type: cell-based; conditions: MTT, 72 h, read-out: Cytotoxicity IC50, MES-SA
Description: as §4

[9] = test system: MDA-MB-435s (human melanoma); test: In vitro cytotoxicity, MTT test; assay type: cell-based; conditions: MTT, 72 h, read-out: Cytotoxicity IC50, MDA-MB-435s
Description: as §4

CCL-8 (mouse sarcoma) = test: In vitro cytotoxicity, MTT test; assay type: cell-based; conditions: MTT, 72 h, read-out: Cytotoxicity IC50, CCL-8
Description: as §4

[10] = test system: mouse sarcoma CCRF-S180 II (CCL-8); test: Mouse non-metastatic cancer model, sarcoma CCL-8 s.c. in ICR mice; assay type: in vivo; conditions: s.c. Day 1, 2, 3, 4, 7, 8, 9, 10, 11; dose 5 mg/kg, total dose 45 mg/kg
Description: Six-week-old female ICR and BALB/c mice were purchased from the University of Tartu Laboratory Animal Centre (Estonia). The mice were housed five to a cage, and under standard conditions (21-23° C., 12 h light: dark cycle), fed ad libitum (R3 diet, Lactamin AB, Kimstad, Sweden) and observed daily. The experimental procedures involving experimental animals were carried out in accordance with the guidelines of the European Community, local laws and policies, and were approved by the Latvian Animal Protection Ethical Committee, the Food and Veterinary Service, Riga, Latvia.
In vivo studies were performed utilizing the mouse sarcoma CCRF-S180 II (CCL-8) and Lewis lung carcinoma (LLC) cell line. All cell lines were purchased from ATCC. The cells were grown in Dulbecco's modified Eagle's medium (Sigma) supplemented with 10% fetal calf serum (Sigma).
ICR mice were subcutaneously inoculated in the back with 5×10^6 CCL-8 cells and BALB/c mice were inoculated with 1×10^6 LLC (Lewis Lung Carcinoma) cells, which were suspended in 0.1 mL of PBS on day zero of the study. The compounds dissolved in DMSO and then in 0.1 mL water (DMSO final concentration 1%) were injected s.c. Mice in the untreated group were similarly given doses of 0.1 mL of water with DMSO. Tumor volume (tumor volume V=[…], a is maximal and b the minimal tumor diameter) was recorded twice per week. The mice were examined every other day for diseases including appearance, weight and behavior. The mice were sacrificed at day 16 of the experiment by decapitation after ketamine/xylazine anesthesia.

COC(=O)c1cc2ccc3c(Br)c(CN4CCOCC4)[se]c3c2oc1=O [Compound I-9, Methyl 7-bromo-8-(morpholinomethyl)-2-oxo-2H-selenopheno[3,2-h]chromene-3-carboxylate]
Toxicity against normal NIH 3T3 cells [1]: the most toxic among studied chromenes
LD50 at 24 h ([2]; mouse, po, acute oral LD50 calculated from 3T3 NRU IC50 by regression formula, read-out: Basal cytotoxicity Estimated* LD50): 2400 µmol/kg and 1250 mg/kg
IC50 at 24 h ([2]; normal mouse embryo fibroblasts, read-out: Cytotoxicity IC50, 3T3): 56 ± 3 µM
Cytotoxicity on cancer cell lines (malignant tumor cells): medium cytotoxicity
IC50 [3]: 90 ± 6 µM
IC50 [4]: 46 ± 9 µM
IC50 [5]: 86 ± 6 µM
IC50 [6]: 81 ± 6 µM
IC50 [7]: 86 ± 6 µM
IC50 (MG-22A (mouse hepatoma)): 48 ± 3 µM
IC50 [8]: 54 ± 7 µM
IC50 [9]: 67 ± 8 µM
IC50 (CCL-8 (mouse sarcoma)): 84 ± 6 µM
Anticancer activity in vivo (inhibition, %), CCL-8 tumor volume [10]: 38** %
